Experimental data taken from patent US12570662B2, “Substituted pyrrolo[1,2-b]pyridazines as bifunctional degraders of interleukin-1 receptor-associated kinases” (Nurix Therapeutics, Inc., priority 2021, dated 2026).

Molecular target: T1, IRAK4 (Homo sapiens, UniProt Q9NWZ3)
T1 construct: C-terminal HiBiT-tagged Jurkat cells (polyclonal cell line or clone 8D5); endogenous in cells; host or cells: Jurkat cells (polyclonal cell line or clone 8D5), HiBiT-tagged
T1 sequence (Q9NWZ3 1-460): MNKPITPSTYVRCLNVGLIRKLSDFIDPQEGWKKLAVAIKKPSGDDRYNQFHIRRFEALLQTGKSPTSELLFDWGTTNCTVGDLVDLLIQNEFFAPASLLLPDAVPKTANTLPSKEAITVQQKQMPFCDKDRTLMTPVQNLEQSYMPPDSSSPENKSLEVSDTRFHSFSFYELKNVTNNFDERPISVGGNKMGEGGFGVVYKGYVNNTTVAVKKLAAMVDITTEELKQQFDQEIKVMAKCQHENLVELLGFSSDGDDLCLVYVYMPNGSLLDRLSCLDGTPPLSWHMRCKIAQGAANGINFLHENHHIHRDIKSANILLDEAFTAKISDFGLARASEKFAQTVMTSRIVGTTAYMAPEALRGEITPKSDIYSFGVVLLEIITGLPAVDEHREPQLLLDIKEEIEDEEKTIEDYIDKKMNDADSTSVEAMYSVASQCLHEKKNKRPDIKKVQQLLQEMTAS
Assay: IRAK4 Degradation HiBit Assay
Assay type: cell-based
Details: C-terminal HiBiT-tagged Jurkat cells, 4 hrs incubation; for DC50: % IRAK4 remaining, four-parameter fit (IC50 used as DC50); for Dmax: from fit of % IRAK4 remaining, read-out: Dmax
Description: Compound dilution series (11-point, 3.16-fold dilutions in DMSO, columns 1-11 and 12-22) at 500× the final required concentrations were prepared in Labcyte LDV 384-well plates (cat. no. LP-0200) using a Labcyte Echo 550 Liquid Handler. The 500× solutions ranged from 5 mM to 0.5 μM (final assay concentration range 10 μM to 0.1 nM). Using the Echo, the 500× solutions were stamped into white, 384-well assay plates (Corning, cat. no. 3570) at 60 nL/well. The following assay plate controls were also stamped at 60 nL/well: DMSO in wells E23-P23 (NC, Negative Control, maximum signal), 5 mM solution control compound al in wells A23-D23 and M24-P24 (AC, Active Control, minimum signal/background, 10 μM final assay concentration), control compound al dilution series in wells […] (12-point, 4-fold dilutions). C-terminal HiBiT-tagged Jurkat cells (polyclonal cell line or clone 8D5) were plated at 1×10^6 cells/mL, 30 μL/well (3×10^4 cells/well) in complete RPMI (10% FBS, 1% L-glutamine). Cells were incubated for 4 hrs at 32° C./6% CO2. Compound al has the following structure:
Following incubation, 30 μL of complete Nano-Glo HiBiT Lytic Detection Reagent (Nano-Glo HiBiT Lytic Buffer with 1:50 Nano-Glo HiBiT Lytic Substrate and 1:100 LgBiT Protein; Promega cat. no. N3040) was added. Cells were further incubated for 10 min at room temperature (RT). Luminescence units (LU) were read on an EnVision plate reader (Perkin Elmer, 0.1 sec per well). Percent IRAK4 remaining per sample was calculated as follows: […]
Using Graphpad Prism, % IRAK4 remaining values were plotted as a function of compound concentration. To determine DC50 and Dmax values, resulting curves were fit to the Prism curve-fitting equation “log (inhibitor) vs response-Variable slope (four parameters)” (reported best fit value IC50 used as DC50). Table 1 summarizes the biological data of Compounds of Examples 1-137 and 142-145 obtained from the assays described herein.

DC50 [µM] | Dmax [%] | SMILES
0.07 | 81 | N#Cc1cnn2c(-c3cc(NC4CCOCC4)c(-c4nnc(N5CCN(CCC6CCN(c7ccc(C8CCC(=O)NC8=O)cn7)CC6)CC5)s4)cn3)ccc2c1 (racemic) [Example 14, rac-7-[5-(5-{4-[2-(1-{5-[(3R)-2,6-dioxopiperidin-3-yl]pyridin-2-yl}piperidin-4-yl)ethyl]piperazin-1-yl}-1,3,4-thiadiazol-2-yl)-4-[(oxan-4-yl)amino]pyridin-2-yl]pyrrolo[1,2-b]pyridazine-3-carbonitrile]
0.015 | 60 | N#Cc1cnn2c(-c3cc(NC4CCOCC4)c(-c4nnc(N5CCN(C(=O)CN6CCN(c7cc(C8CCC(=O)NC8=O)ccn7)CC6)CC5)s4)cn3)ccc2c1 (racemic) [Example 15, rac-7-[5-(5-{4-[2-(4-{4-[(3R)-2,6-dioxopiperidin-3-yl]pyridin-2-yl}piperazin-1-yl)acetyl]piperazin-1-yl}-1,3,4-thiadiazol-2-yl)-4-[(oxan-4-yl)amino]pyridin-2-yl]pyrrolo[1,2-b]pyridazine-3-carbonitrile]
0.026 | 62 | N#Cc1cnn2c(-c3cc(NC4CCOCC4)c(-c4nnc(N5CCN(C(=O)C6CCN(c7cc(C8CCC(=O)NC8=O)ccn7)CC6)CC5)s4)cn3)ccc2c1 (racemic) [Example 16, rac-7-(5-{5-[4-(1-{4-[(3R)-2,6-dioxopiperidin-3-yl]pyridin-2-yl}piperidine-4-carbonyl)piperazin-1-yl]-1,3,4-thiadiazol-2-yl}-4-[(oxan-4-yl)amino]pyridin-2-yl)pyrrolo[1,2-b]pyridazine-3-carbonitrile]
0.012 | 100 | N#Cc1cnn2c(-c3cc(NC4CCOCC4)c(-c4nnc(N5CCN(C(=O)[C@H]6CCN(c7ccc([C@@H]8CCC(=O)NC8=O)cn7)C6)CC5)s4)cn3)ccc2c1 (racemic) [Example 17, 7-[5-(5-{4-[(3RS)-1-{5-[(3RS&)-2,6-dioxopiperidin-3-yl]pyridin-2-yl}pyrrolidine-3-carbonyl]piperazin-1-yl}-1,3,4-thiadiazol-2-yl)-4-[(oxan-4-yl)amino]pyridin-2-yl]pyrrolo[1,2-b]pyridazine-3-carbonitrile]
0.012 | 103 | N#Cc1cnn2c(-c3cc(NC4CCOCC4)c(-c4nnc(N5CCN(C(=O)CC6CCN(c7ccc(C8CCC(=O)NC8=O)cn7)CC6)CC5)s4)cn3)ccc2c1 (racemic) [Example 18, rac-7-[5-(5-{4-[2-(1-{5-[(3R)-2,6-dioxopiperidin-3-yl]pyridin-2-yl}piperidin-4-yl)acetyl]piperazin-1-yl}-1,3,4-thiadiazol-2-yl)-4-[(oxan-4-yl)amino]pyridin-2-yl]pyrrolo[1,2-b]pyridazine-3-carbonitrile]
0.029 | 103 | CC(C)Nc1cc(-c2ccc3cc(C#N)cnn23)ncc1-c1nnc(N2CCN(C(=O)CC3CCN(c4ccc(C5CCC(=O)NC5=O)cn4)CC3)CC2)s1 (racemic) [Example 19, rac-7-[5-(5-{4-[2-(1-{5-[(3R)-2,6-dioxopiperidin-3-yl]pyridin-2-yl}piperidin-4-yl)acetyl]piperazin-1-yl}-1,3,4-thiadiazol-2-yl)-4-[(propan-2-yl)amino]pyridin-2-yl]pyrrolo[1,2-b]pyridazine-3-carbonitrile]
0.02 | 98 | CC(C)Nc1cc(-c2ccc3cc(C#N)cnn23)ncc1-c1nnc(N2CCN(C(=O)[C@@H]3CCN(c4ccc([C@H]5CCC(=O)NC5=O)cn4)C3)CC2)s1 (racemic) [Example 20, 7-[5-(5-{4-[(3RS)-1-{5-[(3RS&)-2,6-dioxopiperidin-3-yl]pyridin-2-yl}pyrrolidine-3-carbonyl]piperazin-1-yl}-1,3,4-thiadiazol-2-yl)-4-[(propan-2-yl)amino]pyridin-2-yl]pyrrolo[1,2-b]pyridazine-3-carbonitrile]
0.06 | 91 | N#Cc1cnn2c(-c3cc(NC4CCOCC4)c(-c4nnc(C56CCC(C(=O)N7CCC(Oc8ccc(C9CCC(=O)NC9=O)cn8)CC7)(CC5)CC6)s4)cn3)ccc2c1 (racemic) [Example 21, rac-7-[5-(5-{4-[4-({5-[(3R)-2,6-dioxopiperidin-3-yl]pyridin-2-yl}oxy)piperidine-1-carbonyl]bicyclo[2.2.2]octan-1-yl}-1,3,4-thiadiazol-2-yl)-4-[(oxan-4-yl)amino]pyridin-2-yl]pyrrolo[1,2-b]pyridazine-3-carbonitrile]
0.023 | 84 | N#Cc1cnn2c(-c3cc(NC4CCOCC4)c(-c4nnc(C56CCC(C(=O)N7CCN(c8ccc(C9CCC(=O)NC9=O)cn8)CC7)(CC5)CC6)s4)cn3)ccc2c1 (racemic) [Example 22, rac-7-(5-{5-[4-(4-{5-[(3R)-2,6-dioxopiperidin-3-yl]pyridin-2-yl}piperazine-1-carbonyl)bicyclo[2.2.2]octan-1-yl]-1,3,4-thiadiazol-2-yl}-4-[(oxan-4-yl)amino]pyridin-2-yl)pyrrolo[1,2-b]pyridazine-3-carbonitrile]
0.018 | 90 | N#Cc1cnn2c(-c3cc(NC4CCOCC4)c(-c4nnc(C56CCC(CN7CCC(c8ccc(C9CCC(=O)NC9=O)cn8)CC7)(CC5)CC6)s4)cn3)ccc2c1 (racemic) [Example 23, rac-7-[5-(5-{4-[(4-{5-[(3R)-2,6-dioxopiperidin-3-yl]pyridin-2-yl}piperidin-1-yl)methyl]bicyclo[2.2.2]octan-1-yl}-1,3,4-thiadiazol-2-yl)-4-[(oxan-4-yl)amino]pyridin-2-yl]pyrrolo[1,2-b]pyridazine-3-carbonitrile]
0.077 | 83 | N#Cc1cnn2c(-c3cc(NC4CCOCC4)c(-c4nnc(C56CCC(CN7CCC(Oc8ccc(C9CCC(=O)NC9=O)cn8)CC7)(CC5)CC6)s4)cn3)ccc2c1 (racemic) [Example 24, rac-7-{5-[5-(4-{[4-({5-[(3R)-2,6-dioxopiperidin-3-yl]pyridin-2-yl}oxy)piperidin-1-yl]methyl}bicyclo[2.2.2]octan-1-yl)-1,3,4-thiadiazol-2-yl]-4-[(oxan-4-yl)amino]pyridin-2-yl}pyrrolo[1,2-b]pyridazine-3-carbonitrile]
0.053 | 106 | CNc1cc(-c2ccc3cc(C#N)cnn23)ncc1-c1nnc(C23CCC(CN4CCN(c5ccc(C6CCC(=O)NC6=O)cn5)CC4)(CC2)CC3)s1 (racemic) [Example 25, rac-7-[5-(5-{4-[(4-{5-[(3R)-2,6-dioxopiperidin-3-yl]pyridin-2-yl}piperazin-1-yl)methyl]bicyclo[2.2.2]octan-1-yl}-1,3,4-thiadiazol-2-yl)-4-(methylamino)pyridin-2-yl]pyrrolo[1,2-b]pyridazine-3-carbonitrile]
0.12 | 80 | N#Cc1cnn2c(-c3cc(NC4CCOCC4)c(-c4nnc(C56CCC(CN7CCN(c8ccc(C9CCC(=O)NC9=O)cn8)CC7)(CC5)CC6)s4)cn3)ccc2c1 (racemic) [Example 26, rac-7-[5-(5-{4-[(4-{5-[(3R)-2,6-dioxopiperidin-3-yl]pyridin-2-yl}piperazin-1-yl)methyl]bicyclo[2.2.2]octan-1-yl}-1,3,4-thiadiazol-2-yl)-4-[(oxan-4-yl)amino]pyridin-2-yl]pyrrolo[1,2-b]pyridazine-3-carbonitrile]
0.012 | 101 | CNc1cc(-c2ccc3cc(C#N)cnn23)ncc1-c1nnc(C23CCC(C(=O)N4CCN(c5ccc(C6CCC(=O)NC6=O)cn5)CC4)(CC2)CC3)s1 (racemic) [Example 27, rac-7-(5-{5-[4-(4-{5-[(3R)-2,6-dioxopiperidin-3-yl]pyridin-2-yl}piperazine-1-carbonyl)bicyclo[2.2.2]octan-1-yl]-1,3,4-thiadiazol-2-yl}-4-(methylamino)pyridin-2-yl)pyrrolo[1,2-b]pyridazine-3-carbonitrile]
